In ChEMBL document CHEMBL1132460, “Affinity and selectivity of matrix metalloproteinase inhibitors: a chemometrical study from the perspective of ligands and proteins” (J Med Chem, 1999):

Tests used:
Stromelysin-1 = Stromelysin-1 (Homo sapiens, UniProt P08254); assay: Inhibitory concentration against human matrix metalloprotease-3 (MMP-3)
Neutrophil collagenase = Neutrophil collagenase (Homo sapiens, UniProt P22894); assay: Inhibitory concentration against human matrix metalloprotease-8 (human neutrophil collagenase, MMP-8)
Chain of Neutrophil collagenase (P22894 whole entry): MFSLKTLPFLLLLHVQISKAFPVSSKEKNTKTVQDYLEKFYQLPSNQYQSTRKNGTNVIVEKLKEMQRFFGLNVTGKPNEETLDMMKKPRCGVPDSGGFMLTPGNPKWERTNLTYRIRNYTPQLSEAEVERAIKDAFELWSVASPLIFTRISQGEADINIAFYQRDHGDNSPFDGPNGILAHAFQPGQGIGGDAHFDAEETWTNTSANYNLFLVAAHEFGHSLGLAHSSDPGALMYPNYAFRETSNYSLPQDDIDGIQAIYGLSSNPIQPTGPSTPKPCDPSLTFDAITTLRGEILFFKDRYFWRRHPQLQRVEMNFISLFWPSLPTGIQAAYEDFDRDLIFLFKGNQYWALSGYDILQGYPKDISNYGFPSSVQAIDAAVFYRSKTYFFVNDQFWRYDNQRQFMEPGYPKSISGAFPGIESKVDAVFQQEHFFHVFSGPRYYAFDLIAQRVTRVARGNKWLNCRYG

[1] = Affinity ratio of IC50 of MMP-3 to IC50 of MMP-8

Chain of Stromelysin-1 (P08254 whole entry): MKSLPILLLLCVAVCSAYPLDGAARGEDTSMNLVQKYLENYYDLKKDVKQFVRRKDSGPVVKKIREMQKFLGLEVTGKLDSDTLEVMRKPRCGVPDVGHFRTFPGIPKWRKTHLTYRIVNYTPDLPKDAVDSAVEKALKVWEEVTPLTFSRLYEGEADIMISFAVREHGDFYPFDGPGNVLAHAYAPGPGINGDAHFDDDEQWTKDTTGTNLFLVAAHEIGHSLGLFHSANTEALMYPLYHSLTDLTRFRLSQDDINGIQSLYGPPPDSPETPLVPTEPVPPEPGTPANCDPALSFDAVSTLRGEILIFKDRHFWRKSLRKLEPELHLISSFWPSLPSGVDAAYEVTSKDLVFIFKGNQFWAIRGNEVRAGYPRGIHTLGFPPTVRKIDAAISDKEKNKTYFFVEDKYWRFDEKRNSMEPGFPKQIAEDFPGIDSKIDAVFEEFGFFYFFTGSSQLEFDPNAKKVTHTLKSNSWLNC

SMILES	IC50 (Stromelysin-1; read-out: IC50)	IC50 (Neutrophil collagenase)	log10(IC50 MMP-3/IC50 MMP-8) [1]	IC50 (Stromelysin-1)
O=C(NO)C1Cc2ccccc2CN1S(=O)(=O)Cc1ccc(-c2ccccn2)s1 (stereo not drawn)	20 nM	2 nM	1	
O=C(NO)C1Cc2ccccc2CN1S(=O)(=O)Cc1ccccc1 (stereo not drawn)		3000 nM		10000 nM l-1
O=C(O)C1Cc2ccccc2CN1S(=O)(=O)c1ccc(-n2nccn2)cc1 (stereo not drawn)	600 nM	90 nM		
O=C(Nc1cccc(S(=O)(=O)N2Cc3ccccc3CC2C(=O)NO)c1)c1ccccc1O (stereo not drawn)		200 nM		10000 nM l-1
O=C(c1ccccc1)c1ccc(S(=O)(=O)N2Cc3ccccc3CC2C(=O)O)cc1 (stereo not drawn)	3000 nM	300 nM		
N#Cc1ccc(Oc2ccc(S(=O)(=O)N3Cc4ccccc4CC3C(=O)O)cc2)cc1 (stereo not drawn)	1000 nM	10 nM		
O=C(Nc1ccc(S(=O)(=O)N2Cc3ccccc3CC2C(=O)NO)cc1)OCc1ccccc1 (stereo not drawn)	400 nM	800 nM		
O=C(NO)C1Cc2ccccc2CN1S(=O)(=O)c1ccc(-c2ccccc2)cc1 (stereo not drawn)		2 nM	1	
O=C(O)C1Cc2ccccc2CN1S(=O)(=O)c1ccc(-c2ccc(C(F)(F)F)cc2)cc1 (stereo not drawn)	300 nM	10 nM		
O=C(O)[C@H]1Cc2c([nH]c3ccccc23)CN1S(=O)(=O)c1ccc(Oc2ccccc2)cc1			1.3	
O=C(O)C1Cc2ccccc2CN1S(=O)(=O)c1ccc(-c2ccon2)s1 (stereo not drawn)	2000 nM	600 nM		
O=C(O)C1Cc2ccc(O)cc2CN1S(=O)(=O)c1ccc(-c2ccc(Cl)cc2)cc1 (stereo not drawn)	200 nM	20 nM		
CC(=O)Nc1ccc(S(=O)(=O)N2Cc3ccccc3CC2C(=O)NO)cc1 (stereo not drawn)			0.85	
COc1ccc(S(=O)(=O)N2Cc3ccccc3C[C@@H]2C(=O)NO)cc1	20 nM		0.7	
O=C(NO)[C@H]1Cc2c([nH]c3ccccc23)CN1S(=O)(=O)c1ccc(N2CCOCC2)cc1			0.63	
O=C(O)C1Cc2ccccc2CN1S(=O)(=O)c1ccc(Br)cc1 (stereo not drawn)	5000 nM	600 nM		
O=C(O)C1Cc2ccccc2CN1S(=O)(=O)c1ccc(-c2ccccn2)s1 (stereo not drawn)	2000 nM	90 nM		
COc1ccc(S(=O)(=O)N2Cc3ccccc3C[C@H]2C(=O)NO)cc1	7000 nM		0.85	

Further lines, results first:

IC50 (Stromelysin-1; read-out: IC50)	IC50 (Neutrophil collagenase)	log10(IC50 MMP-3/IC50 MMP-8) [1]	IC50 (Stromelysin-1)	SMILES
200 nM	9 nM			O=C(O)C1Cc2ccccc2CN1S(=O)(=O)c1ccc(Oc2ccccc2)cc1 (stereo not drawn)
500 nM	20 nM			O=C(O)C1Cc2ccccc2CN1S(=O)(=O)c1ccc(Oc2ccc(Cl)cc2)cc1 (stereo not drawn)
		1		COc1ccc(S(=O)(=O)N2Cc3cc([N+](=O)[O-])ccc3CC2C(=O)NO)cc1 (stereo not drawn)
700 nM	60 nM			O=C(O)C1Cc2ccccc2CN1S(=O)(=O)c1ccc(/C=C/c2ccccc2)cc1 (stereo not drawn)
		0.82		COc1ccc(S(=O)(=O)N2Cc3[nH]c4ccccc4c3C[C@@H]2C(=O)NO)cc1
300 nM	40 nM			CNC(=O)c1ccc(Oc2ccc(S(=O)(=O)N3Cc4ccccc4CC3C(=O)O)cc2)cc1 (stereo not drawn)
		1.22		CCOC(=O)Nc1ccc(S(=O)(=O)N2Cc3ccccc3CC2C(=O)NO)cc1 (stereo not drawn)
800 nM	80 nM			O=C(O)C1Cc2ccccc2CN1S(=O)(=O)c1ccc(-c2nc3ccccc3o2)cc1 (stereo not drawn)
	1000 nM		10000 nM l-1	CSc1nccc(-c2ccc(S(=O)(=O)N3Cc4ccccc4CC3C(=O)O)s2)n1 (stereo not drawn)
2000 nM	200 nM			O=C(O)C1Cc2ccccc2CN1S(=O)(=O)c1ccc(Sc2ccccc2)cc1 (stereo not drawn)
20 nM		0.82		COc1ccc(S(=O)(=O)N2Cc3ncn(C)c3C[C@@H]2C(=O)NO)cc1
30 nM				COc1ccc(S(=O)(=O)N2Cc3cc(NC(=O)[C@H](C)N)ccc3CC2C(=O)NO)cc1 (stereo partly drawn)
10 nM				COc1ccc(S(=O)(=O)N2Cc3cc(N)ccc3CC2C(=O)NO)cc1 (stereo not drawn)
50 nM	20 nM			O=C(O)C1Cc2ccccc2CN1S(=O)(=O)CCc1ccc(-c2ccccc2)cc1 (stereo not drawn)
		0.7		COc1ccc(S(=O)(=O)N2Cc3[nH]cnc3C[C@@H]2C(=O)NO)cc1
